Key:
[1] = molecular target: Glutamate NMDA receptor (Rattus norvegicus) (UniProt P35439+Q00959+Q00960+Q00961+Q62645+Q8VHN2+Q9R1M7); experiment: Depolarizing activity relative to that of L-Glutamate (L-Glu=1) tested against NMDA type receptor in the newborn rat spinal motoneurone; assay type: protein-complex assay
[2] = molecular target: Glutamate receptors; NMDA/AMPA (Rattus norvegicus) (UniProt P35439+Q00959+Q00960+Q00961+Q62645+Q8VHN2+Q9R1M7+P19491+P19492+P19493+P19490); experiment: Depolarizing activity relative to that of L-Glutamate (L-Glu=1) tested against mixed type(NMDA & AMPA) receptor in the newborn rat spinal motoneurone; assay type: protein-complex assay

Structure (SMILES) | Relative Potency Ratio [1] | Relative Potency Ratio [2]
O=C(O)[C@H]1CCCN[C@@H]1C(=O)O (racemic) | 20 | –
CN[C@H](CC(=O)O)C(=O)O | 50 | –
O=C(O)[C@H]1NCCC[C@H]1C(=O)O | 10 | –

Further lines, results first:

Relative Potency Ratio [1] | Relative Potency Ratio [2] | Structure (SMILES)
0.1 | – | O=C(O)[C@H]1NCC[C@H]1C(=O)O
3 | – | O=C(O)[C@H]1CCN[C@H]1C(=O)O
– | 5 | O=C(O)[C@@H]1CCN[C@H]1C(=O)O

Source: ChEMBL document CHEMBL1152071, “Synthesis and neurobiological actions of pyrrolidine-2,3-dicarboxylic acids (PRDA). Conformationally restricted analogues of L-aspartate” (Bioorg Med Chem Lett, 1994)
